Laboratory results reported in patent publication US10792410B2, “Bioartificial liver” (Mayo Foundation for Medical Education and Research, priority 2009, dated 2020).

Key:
[1] = tested on: TLR4 + (Wild type) mice; test: Toxin-induced liver injury in TLR4 + (wild type) mice; type: in vivo
Procedure: (§1) The role of TLR4 in ALF and SIRS was studied. […] A similar protective effect of TLR4 deficiency was also observed when wild-type and TLR4 mutant mice were treated with acetaminophen (APAP) at 500 mg/kg—a dose which is highly toxic with 100% mortality in wild-type mice (Table 2). Systemic inflammation was confirmed in wild-type mice after both APAP and Dgal/LPS by rising blood levels of TNFα and neutrophil infiltration in their lungs at necropsy. In contrast, lung histology and systemic levels of TNFα remained normal in TLR4 deficient mice. […] TLR4 deficient Kupffer cells may also explain the protective effects observed in TLR4 deficient mice after toxin exposure (FIG. 6c). […] Pretreatment with gadolinium chloride reduced the number of Kupffer cells in the liver by 48% (31±6 to 16±4 cells/HPF, p<0.001), and lowered peak ALT levels from 2458±2347 U/mL to 278±196 U/mL.

[2] = tested on: TLR4 − (Deficient) mice; test: Toxin-induced liver injury in TLR4 − (deficient) mice; type: in vivo; details: n = 10/group
Procedure: as §1

[3] = tested on: TLR4; test: TLR4 agonist activity of mouse serum, luciferase reporter in HEK293/Luc(+)/TLR4(+) cells; type: cell-based; details: mouse serum 6 hours after APAP 500 mg/kg vs 0 mg/kg sham controls, p<0.001
Description: FIGS. 7(a)-7(c): (a) TLR4 Signaling Complex is found in many cell types. It can also be stably transfected into reporter cells to measure TLR4 agonist activity in vitro; (b) is a schematic representation of HEK293 cells which have been transfected with TLR4 complex and a luciferase reporter gene to measure TLR4 agonist activity in vitro. The HEK293/Luc(+)/TLR4(+) cells, used to measure TLR4 agonist activity in mouse serum in (c) are used to screen dog serum for TLR4 agonist activity; (c) TLR4 agonist activity was elevated in mouse blood after toxic exposure to APAP (500 vs 0 mg/kg). This in vitro assay is based on a luciferase reporter gene linked to NFκβ in HEK293 cells which responds to TLR4 activation. Only trace background activity was detected in HEK293 cells lacking the TLR4 complex, labeled TLR4(−), confirming specificity of the luciferase activity to TLR4.
Further evidence supporting TLR4 as a signaling molecule in the SIRS response to ALF is illustrated in FIG. 7. FIGS. 7a-b show the assay, as well as the TLR4 receptor complex, used in the study.
TLR4 agonist activity are measured by an in vitro assay using HEK293/Luc(+)/TLR4(+) cells (see, e.g., Akira S, Takeda K. Toll-like receptor signaling. Nat Rev Immunol 2004; 4:499-511). […] Luciferase reporter gene signal are quantified by TD-20/20 luminometer (Turner Designs, Sunnyvale, Calif.). […]

[4] = wild type mice, 6 hr, n = 10/group

N[C@H]1C(O)O[C@H](CO)[C@H](O)[C@@H]1O (stereo partly drawn) [DGal alone, D-galactosamine]
ALT, TLR4 + [1, 4]: 43 ± 9 U/mL
TUNEL, TLR4 + [1, 4]: <1 +cells/HPF
ALT, TLR4 − ([2]; 6 hr): 54 ± 18 U/mL
TUNEL, TLR4 − ([2]; 6 hr): <1 +cells/HPF

[Cl][Gd]([Cl])[Cl] [gadolinium chloride]
number of Kupffer cells in the liver ([1]; after pretreatment, 31±6 without): 16±4 cells/HPF
reduction of the number of Kupffer cells in the liver ([1]; pretreatment of wild-type mice, p<0.001): 48%
ALT, TLR4 + [1, 4]: 278±196 U/mL

CC(=O)Nc1ccc(O)cc1 [APAP, acetaminophen]
ALT, TLR4 + ([1]; wild type mice, 18 hr, APAP 500 mg/kg, n = 10/group): 9054 ± 4793 U/mL
mortality ([1]; wild-type mice, 500 mg/kg): 100%
ALT, TLR4 − ([2]; 18 hr, APAP 500 mg/kg): 4810 ± 4045 U/mL
TLR4 agonist activity in serum [3]: high levels of TLR4 agonist activity
